Read-outs that look alike come from different tables or passages of the source.
Target: T1, MEK1 (Homo sapiens, UniProt Q02750)
T1 construct: purchased Millipore 14-420 (GST-MEK1); 14-703 (Cot1); host or cells: Cot1: insect cells (SF21)
Assay: MEK1 activation kinase assay (Assay 2, HTRF; Cot1 phosphorylates GST-MEK1)
Format: biochemical
Experimental: MEK1 Activation Kinase Assay
The kinase Cot1 activates MEK1 by phosphorylating its activation loop. The inhibitory activity of compounds of the present invention on this activation of MEK1 was quantified employing the HTRF assay described in the following paragraphs.
As substrate for the kinase reaction the unactive C-terminally His6-tagged GST-MEK1 fusion protein (Millipore cat. no 14-420) was used.
Then the kinase reaction was started by the addition of 2 μl of a solution of Cot1 in assay buffer and the resulting mixture was incubated for a reaction time of 20 min at 22° C. The concentration of Cot1 in the assay was adjusted depending of the activity of the enzyme lot and was chosen appropriate to have the assay in the linear range, typical enzyme concentrations were in the range of about 2 ng/μl (final conc. in the 5 μl assay volume).
The resulting mixture was incubated 2 h at 22° C. to allow the binding of the phosphorylated GST-MEK1 to the anti-GST-XL665 and the Eu-cryptate labelled anti-phospho-MEK 1/2 antibody. Subsequently the amount of Ser217/Ser221-phosphorylated substrate was evaluated by measurement of the resonance energy transfer from the Eu-Cryptate-labelled anti-phospho-MEK antibody to the anti-GST-XL665.

[1] = mean values from 2 or more measurements, read-out: Assay 2 IC50 values (nanomolar) (MEK1 activation kinase assay) (values are mean values from 2 or more measurements)
[2] = representative example compounds, read-out: IC50 in MEK1 activation kinase assay

T1 sequence (Q02750 whole entry): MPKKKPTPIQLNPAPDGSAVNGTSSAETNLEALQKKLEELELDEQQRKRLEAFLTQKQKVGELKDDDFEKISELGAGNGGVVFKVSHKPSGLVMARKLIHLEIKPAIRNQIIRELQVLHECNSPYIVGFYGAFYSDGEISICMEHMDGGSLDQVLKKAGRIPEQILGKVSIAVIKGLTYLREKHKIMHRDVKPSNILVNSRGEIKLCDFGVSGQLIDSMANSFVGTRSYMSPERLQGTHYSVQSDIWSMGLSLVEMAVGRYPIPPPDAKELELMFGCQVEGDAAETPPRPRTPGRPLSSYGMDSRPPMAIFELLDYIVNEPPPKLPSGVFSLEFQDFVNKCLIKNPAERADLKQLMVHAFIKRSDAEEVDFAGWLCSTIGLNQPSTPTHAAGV

Which IC50 [1] does the source give for `C[C@H](O)CNC(=O)c1c(Nc2ccc(I)cc2F)cc(F)cc1Oc1cccc(NS(=O)(=O)N(C)C)c1` [Example 4.23, 2-[3-[[(dimethylamino)sulfonyl]amino]phenoxy]--4-fluoro-6-[(2-fluoro-4-iodophenyl)amino]-N-((S)-2-hydroxy-propyl)-benzamide] here?
The IC50 was 132 nM.

With `CNS(=O)(=O)Nc1cccc(Oc2cc(F)cc(Nc3ccc(I)cc3F)c2C(N)=O)c1` [Example 5.41, 2-[3-[[(methylamino)sulfonyl]amino]phenoxy]-4-fluoro-6-[(2-fluoro-4-iodophenyl)amino]-benzamide] as the molecule, how does the IC50 (IC50 in MEK1 activation kinase assay, representative example compounds) read?
Its IC50 is under 1000 nM.

What about the IC50 [1] of the same molecule?
The IC50 was 22.2 nM.

`NC(=O)c1c(Nc2ccc(I)cc2F)cc(F)cc1Oc1cccc(NC(=O)c2cc[nH]n2)c1` [Example 5.81, 1H-Pyrazole-3-carboxylic acid {3-[2-carbamoyl-5-fluoro-3-(2-fluoro-4-iodo-phenylamino)-phenoxy]-phenyl}-amide] was tested. Which IC50 [1] did it give?
The IC50 was 96.4 nM.

How did the IC50 [1] turn out when `CN(C)S(=O)(=O)N(C)c1cccc(Oc2cc(F)cc(Nc3ccc(I)cc3F)c2C(N)=O)c1` [Example 10.6, 6-[3-[[(dimethylamino)sulfonyl](methyl)-amino]phenoxy]-4-fluoro-2-[(2-fluoro-4-iodophenyl)amino]-benzamide] was run?
Its IC50 is 49.1 nM.

And the IC50 [2]?
The IC50 was under 1000 nM.

`CN(C)S(=O)(=O)Nc1cccc(Oc2cc(F)cc(Nc3ccc(I)cc3F)c2C(N)=O)c1` [Example 2.1, 2-[3-[[(dimethylamino)sulfonyl]amino]phenoxy]-4-fluoro-6-[(2-fluoro-4-iodophenyl)amino]-benzamide] was tested. Which IC50 [1] did it give?
Its IC50 is 21.8 nM.

With `CS(=O)(=O)c1cccc(Oc2cc(F)cc(Nc3ccc(I)cc3F)c2C(N)=O)c1` [Example 10.8, 4-Fluoro-2-(2-fluoro-4-iodo-phenylamino)-6-(3-methanesulfonyl-phenoxy)-benzamide] as the molecule, how does the IC50 [1] read?
The IC50 was 29.4 nM.

And the IC50 [2]?
Its IC50 is under 1000 nM.

How did the IC50 [1] turn out when `CN(C)C(=O)N1CCN(CCOc2cc(F)cc(Nc3ccc(I)cc3F)c2C(N)=O)CC1` [Example 5.30, 4-{2-[2-Carbamoyl-5-fluoro-3-(2-fluoro-4-iodo-phenylamino)-phenoxy]-ethyl}-piperazine-1-carboxylic acid dimethylamide] was run?
Its IC50 is 138 nM.

Which IC50 [1] does the source give for `CS(=O)(=O)NCc1cccc(Oc2cc(F)cc(Nc3ccc(I)cc3F)c2C(N)=O)c1` [Example 5.68, 4-Fluoro-2-(2-fluoro-4-iodo-phenylamino)-6-[3-(methane-sulfonylamino-methyl)-phenoxy]-benzamide] here?
Its IC50 is 43.2 nM.

With `NC(=O)c1c(Nc2ccc(I)cc2F)cc(F)cc1Oc1cccc(NC(=O)c2ccsc2)c1` [Example 5.75, Thiophene-3-carboxylic acid {3-[2-carbamoyl-5-fluoro-3-(2-fluoro-4-iodo-phenylamino)-phenoxy]-phenyl}-amide] as the molecule, how does the IC50 [1] read?
The IC50 was 103 nM.

With `Cn1cc(Oc2cc(F)cc(Nc3ccc(I)cc3F)c2C(N)=O)cn1` [Example 4.27, 4-Fluoro-2-(2-fluoro-4-iodo-phenylamino)-6-(1-methyl-1H-pyrazol-4-yloxy)-benzamide] as the molecule, how does the IC50 [1] read?
The IC50 was 258 nM.

And the IC50 [2]?
Its IC50 is under 1000 nM.

How did the IC50 [1] turn out when `CCS(=O)(=O)N1CCC[C@H]1COc1cc(F)cc(Nc2ccc(I)cc2F)c1C(N)=O` [Example 5.34, 2-((S)-1-Ethanesulfonyl-pyrrolidin-2-ylmethoxy)-4-fluoro-6-(2-fluoro-4-iodo-phenylamino)-benzamide] was run?
Its IC50 is 96.5 nM.

How did the IC50 [1] turn out when `CC(C)(O)C(O)CCOc1cc(F)cc(Nc2ccc(I)cc2F)c1C(N)=O` (single isomer, unassigned) [Example 6.4, 2-(3,4-Dihydroxy-4-methyl-pentyloxy)-4-fluoro-6-(2-fluoro-4-iodo-phenylamino)-benzamide] was run?
Its IC50 is 29.5 nM.

Which IC50 [1] does the source give for `CCCNS(=O)(=O)Nc1cccc(Oc2cc(F)cc(Nc3ccc(I)cc3F)c2C(N)=O)c1` [Example 5.2, 2-[3-[[(propylamino)sulfonyl]amino]phenoxy]-4-fluoro-6-[(2-fluoro-4-iodophenyl)amino]-benzamide] here?
Its IC50 is 24 nM.

Which IC50 [1] does the source give for `CS(=O)(=O)Cc1cccc(Oc2cc(F)cc(Nc3ccc(I)cc3F)c2C(N)=O)c1` [Example 4.34, 4-Fluoro-2-(2-fluoro-4-iodo-phenylamino)-6-(3-methane-sulfonylmethyl-phenoxy)-benzamide] here?
The IC50 was 23.5 nM.

And the IC50 [2]?
Its IC50 is under 1000 nM.

With `NC(=O)c1c(Nc2ccc(I)cc2F)cc(F)cc1Oc1cccc(NC(=O)c2cn[nH]c2)c1` [Example 5.79, 1H-Pyrazole-4-carboxylic acid {3-[2-carbamoyl-5-fluoro-3-(2-fluoro-4-iodo-phenylamino)-phenoxy]-phenyl}-amide] as the molecule, how does the IC50 [1] read?
The IC50 was 77.8 nM.

`Cc1nocc1C(=O)Nc1cccc(Oc2cc(F)cc(Nc3ccc(I)cc3F)c2C(N)=O)c1` [Example 5.83, 3-Methyl-isoxazole-4-carboxylic acid {3-[2-carbamoyl-5-fluoro-3-(2-fluoro-4-iodo-phenylamino)-phenoxy]-phenyl}-amide] was tested. Which IC50 [1] did it give?
Its IC50 is 143 nM.

With `NC(=O)c1c(Nc2ccc(I)cc2F)cc(F)cc1Oc1cccc(NC(=O)c2ccon2)c1` [Example 5.84, Isoxazole-3-carboxylic acid {3-[2-carbamoyl-5-fluoro-3-(2-fluoro-4-iodo-phenylamino)-phenoxy]-phenyl}-amide] as the molecule, how does the IC50 [1] read?
The IC50 was 75.4 nM.

`CC(O)(CO)CCOc1cc(F)cc(Nc2ccc(I)cc2F)c1C(N)=O` (single isomer, unassigned) [Example 6.5, 2-(3,4-Dihydroxy-3-methyl-butoxy)-4-fluoro-6-(2-fluoro-4-iodo-phenylamino)-benzamide] was tested. Which IC50 [1] did it give?
The IC50 was 172 nM.

With `Cc1cc(I)ccc1Nc1cc(F)cc(Oc2cccc(NS(=O)(=O)N(C)C)c2)c1C(N)=O` [Example 2.17, 2-{3-[(dimethylsulfamoyl)amino]phenoxy}-4-fluoro-6-[(4-iodo-2-methylphenyl)amino] benzamide] as the molecule, how does the IC50 [1] read?
The IC50 was 39.8 nM.

And the IC50 [2]?
Its IC50 is under 1000 nM.

With `CS(=O)(=O)N1CCC[C@@H]1COc1cc(F)cc(Nc2ccc(I)cc2F)c1C(N)=O` [Example 5.32, 4-Fluoro-2-(2-fluoro-4-iodo-phenylamino)-6-((R)-1-methanesulfonyl-pyrrolidin-2-ylmethoxy)-benzamide] as the molecule, how does the IC50 [1] read?
Its IC50 is 35.4 nM.

With `NC(=O)c1c(Nc2ccc(I)cc2F)cc(F)cc1Oc1cccc(NS(=O)(=O)C2CC2)c1` [Example 5.36, 2-(3- Cyclopropanesulfonylamino-phenoxy)-4-fluoro-6-(2-fluoro-4-iodo-phenylamino)-benzamide] as the molecule, how does the IC50 [1] read?
The IC50 was 14.5 nM.

`NC(=O)c1c(Nc2ccc(I)cc2F)cc(F)cc1Oc1cccc(NC(=O)c2ccno2)c1` [Example 5.78, Isoxazole-5-carboxylic acid {3-[2-carbamoyl-5-fluoro-3-(2-fluoro-4-iodo-phenylamino)-phenoxy]-phenyl}-amide] was tested. Which IC50 [1] did it give?
Its IC50 is 86.2 nM.

With `NC(=O)c1c(Nc2ccc(I)cc2F)cc(F)cc1Oc1cccc(NC(=O)c2csnn2)c1` [Example 5.76, [1,2,3]Thiadiazole-4-carboxylic acid {3-[2-carbamoyl-5-fluoro-3-(2-fluoro-4-iodo-phenylamino)-phenoxy]-phenyl}-amide] as the molecule, how does the IC50 [1] read?
Its IC50 is 70.3 nM.

How did the IC50 [1] turn out when `NC(=O)c1c(Nc2ccc(I)cc2F)cc(F)cc1Oc1cccc(NS(=O)(=O)C2CCCC2)c1` [Example 5.37, 2-(3- Cyclopentanesulfonylamino-phenoxy)-4-fluoro-6-(2-fluoro-4-iodo-phenylamino)-benzamide] was run?
The IC50 was 20.4 nM.

Which IC50 [1] does the source give for `NC(=O)c1c(Nc2ccc(I)cc2F)cc(F)cc1Oc1cncc(NS(=O)(=O)c2c[nH]cn2)c1` [Example 5.93, 4-Fluoro-2-(2-fluoro-4-iodo-phenylamino)-6-[5-(1H-imidazole-4-sulfonylamino)-pyridin-3-yloxy]-benzamide] here?
Its IC50 is 86 nM.

Which IC50 [1] does the source give for `NC(=O)c1cccc(Oc2cc(F)cc(Nc3ccc(I)cc3F)c2C(N)=O)c1` [Example 4.37, 2-(3-Carbamoyl-phenoxy)-4-fluoro-6-(2-fluoro-4-iodo-phenylamino)-benzamide] here?
Its IC50 is 26.6 nM.

And the IC50 [2]?
The IC50 was under 1000 nM.

How did the IC50 [1] turn out when `CNC(=O)c1c(Nc2ccc(I)cc2F)cc(F)cc1Oc1cccc(NS(=O)(=O)N(C)C)c1` [Example 4.17, 2-[3-[[(dimethylamino)sulfonyl]amino]phenoxy]--4-fluoro-6-[(2-fluoro-4-iodophenyl)amino]-N-methyl-benzamide] was run?
Its IC50 is 61.3 nM.

How did the IC50 [1] turn out when `CC(C)(O)C(O)CCOc1cc(F)cc(Nc2ccc(I)cc2F)c1C(N)=O` (single isomer, unassigned) [Example 6.3, 2-(3,4-Dihydroxy-4-methyl-pentyloxy)-4-fluoro-6-(2-fluoro-4-iodo-phenylamino)-benzamide] was run?
Its IC50 is 30.6 nM.

With `CC(=O)N1CCC[C@@H]1COc1cc(F)cc(Nc2ccc(I)cc2F)c1C(N)=O` [Example 5.39, 2-((R)-1-Acetyl-pyrrolidin-2-ylmethoxy)-4-fluoro-6-(2-fluoro-4-iodo-phenylamino)-benzamide] as the molecule, how does the IC50 [1] read?
The IC50 was 438 nM.

Which IC50 [1] does the source give for `C#Cc1ccc(Nc2cc(F)cc(Oc3cccc(NS(=O)(=O)N(C)C)c3)c2C(N)=O)c(F)c1` [Example 7.2, 2-[3-[[(dimethylamino)sulfonyl]amino]phenoxy]-4-fluoro-6-[(4-ethynyl-2-fluorophenyl)amino]-benzamide] here?
The IC50 was 13.5 nM.

Which IC50 [1] does the source give for `CC(O)(CO)CCOc1cc(F)cc(Nc2ccc(I)cc2F)c1C(N)=O` (single isomer, unassigned) [Example 6.6, 2-(3,4-Dihydroxy-3-methyl-butoxy)-4-fluoro-6-(2-fluoro-4-iodo-phenylamino)-benzamide] here?
Its IC50 is 80.3 nM.
